Source: article PMC4106900 (Journal of medicinal chemistry, 2012)
Structures can show the parent of a compound that is named as a salt.

Tests used:
[1] = Ex vivo determination of radiometabolites in mouse plasma, liver and brain
[2] = Small-animal PET imaging, baseline brain uptake of [18F]13; format: in vivo, mouse
[3] = Stability of formulated [18F]13 by analytical reverse-phase HPLC; format: physicochemical; conditions: saline/ethanol (9:1, total 10 mL)
[4] = biological target: vesicular acetylcholine transporter (VAChT); conditions: read-out: Ki for VAChT; cited from earlier work
[5] = biological target: emopamil binding protein (EBP); conditions: read-out: Ki for EBP; cited from earlier work
[6] = cited from earlier work; for time of maximum uptake in the brain post injection: normal mice
S1R = conditions: read-out: Ki for S1R; cited from earlier work
opioid receptors = experiment: Radioligand displacement screen; format: binding; conditions: 100 nM screening concentration
α2-adrenoceptors = experiment: NovaScreen radioligand displacement screen; format: binding; conditions: 100 nM screening concentration
acetylcholine esterase = acetylcholine esterase (Homo sapiens, UniProt P22303); experiment: NovaScreen radioligand displacement screen; format: binding; conditions: 100 nM screening concentration
sodium, site 2 channels = experiment: NovaScreen radioligand displacement screen; format: binding; conditions: 100 nM screening concentration
[7] = test system: 59 targets (non-SR sites); experiment: NovaScreen and in-house profile of 59 targets; format: binding; conditions: 10,000 nM screening concentration
[8] = test system: peripheral muscarinic receptors; experiment: NovaScreen radioligand displacement screen; format: binding; conditions: 100 nM screening concentration
[9] = In vitro half-life in rat liver microsomes
[10] = test system: neuronal (α-bungarotoxin insensitive) nicotinic receptors; experiment: NovaScreen radioligand displacement screen; format: binding; conditions: 100 nM screening concentration
calcium L type channels = experiment: NovaScreen radioligand displacement screen; format: binding; conditions: 100 nM screening concentration
S1Rs = S1Rs (Mus musculus, UniProt O55242); experiment: Small-animal PET blocking studies of [18F]13 binding in brain; format: in vivo; conditions: pre-treatment 1 mg/kg, 10 min prior to iv [18F]13, whole mouse brain
S1Rs, sequence (O55242 whole entry): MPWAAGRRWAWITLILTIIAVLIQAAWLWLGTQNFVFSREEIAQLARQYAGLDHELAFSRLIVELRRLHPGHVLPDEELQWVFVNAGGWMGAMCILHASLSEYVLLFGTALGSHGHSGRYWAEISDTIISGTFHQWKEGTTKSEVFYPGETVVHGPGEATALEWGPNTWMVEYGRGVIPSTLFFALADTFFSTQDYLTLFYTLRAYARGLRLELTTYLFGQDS

acetylcholine esterase, sequence (P22303 32-614): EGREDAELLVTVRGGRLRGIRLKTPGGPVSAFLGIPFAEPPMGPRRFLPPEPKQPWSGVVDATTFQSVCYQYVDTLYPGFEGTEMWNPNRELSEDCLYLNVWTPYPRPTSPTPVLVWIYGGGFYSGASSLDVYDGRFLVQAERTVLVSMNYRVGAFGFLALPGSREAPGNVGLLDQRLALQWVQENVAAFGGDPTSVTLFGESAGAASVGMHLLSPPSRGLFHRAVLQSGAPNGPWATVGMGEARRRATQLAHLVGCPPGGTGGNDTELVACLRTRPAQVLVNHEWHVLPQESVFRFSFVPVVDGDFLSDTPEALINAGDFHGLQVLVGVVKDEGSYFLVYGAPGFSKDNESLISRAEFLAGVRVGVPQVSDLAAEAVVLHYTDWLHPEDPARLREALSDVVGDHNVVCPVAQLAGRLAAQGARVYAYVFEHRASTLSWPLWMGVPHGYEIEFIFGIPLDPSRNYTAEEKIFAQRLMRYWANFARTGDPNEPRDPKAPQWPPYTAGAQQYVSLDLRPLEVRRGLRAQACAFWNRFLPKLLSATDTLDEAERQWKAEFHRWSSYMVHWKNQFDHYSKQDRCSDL

SMILES: O=c1sc2cc(CCCF)ccc2n1CCN1CCCCCC1 [[^18F]13, 6-(3-fluoropropyl)-3-(2-(azepan-1-yl)ethyl)benzo[d]thiazol-2(3H)-one]
- percentage of intact tracer in plasma ([1]; 30 min post administration): 60%
- percentage of intact tracer in plasma ([1]; 60 min post administration): 50%
- percentage of intact tracer in brain ([1]; throughout the study (30 and 60 min)): 100%
- brain uptake at 60 min ([2]; baseline TAC, whole mouse brain): 6 %ID/g
- maximum uptake in brain ([2]; baseline TAC, whole mouse brain, within the first few minutes): ~ 17 %ID/g
- brain uptake at 60 min post injection as percent of maximum ([2]; mouse brain): 65%
- time formulated tracer shown to be stable [3]: at least 5.5 hours

SMILES: COc1cc(CCN2CCN(CCCc3ccccc3)CC2)ccc1O[11CH3] [compound 3]
- Ki [4]: 50 nM
- Ki [5]: 1.7 nM

SMILES: COc1cc(CCN2CCN(CCCc3ccccc3)CC2)ccc1OC[18F] [compound 4]
- time of maximum uptake in the brain post injection [6]: 30 min

SMILES: FCCC1OC2(CCN(Cc3ccccc3)CC2)c2ccccc21 (centres unmarked) [compound 8]
- brain level at 60 min post injection as percent of maximum ([6]; mouse brain, biodistribution): 81%
- time of maximum uptake in the brain post injection [6]: 30 min

SMILES: CCCc1ccc2c(c1)sc(=O)n2CCN1CCCCCC1 [compound 9]
- Ki (S1R): 0.56 nM

SMILES: O=c1sc2cc(CCCF)ccc2n1CCN1CCCCCC1 [compound 13, 3-(2-(azepan-1-yl)ethyl)-6-(3-fluoropropyl)benzo[d]thiazol-2(3H)-one hydrochloride]
- displacement of the radioligand (opioid receptors): < 50%
- displacement of the radioligand (α2-adrenoceptors): < 50%
- displacement of the radioligand (acetylcholine esterase): < 50%
- displacement of the radioligand (sodium, site 2 channels): < 50%
- displacement of the radioligand [7]: < 50%
- displacement of the radioligand [8]: < 50%
- clearance [9]: 0.18 mL/min/g
- displacement of the radioligand [10]: < 50%
- displacement of the radioligand (calcium L type channels): < 50%

SMILES: CN(C)CCN(C)CCc1ccc(Cl)c(Cl)c1 [compound 18, N-[2-(3,4-dichlorophenyl)ethyl]-N-methyl-2-(dimethylamino)-ethylamine]
- reduction of [18F]13 binding in the brain at 60 min (S1Rs): 81%
